{"source": "ChEMBL document CHEMBL5608173", "about": "“Discovery of novel natural-product-derived mutant isocitrate dehydrogenases 1 inhibitors: Structure-based virtual screening, biological evaluation and structure-activity relationship study” (Eur J Med Chem, 2024)", "key": {"HT-1080 [1]": {"tested_on": "HT-1080", "experiment": "Induction of apoptosis in human HT-1080 cells assessed as late apoptotic cells at 6 uM incubated for 12 hrs by Annexin V-FITC/PI staining based flow cytometric analysis (reference value: 0.60 %)", "type": "functional"}, "HT-1080 [2]": {"tested_on": "HT-1080", "experiment": "Induction of apoptosis in human HT-1080 cells assessed as viable cells at 6 uM incubated for 48 hrs by Annexin V-FITC/PI staining based flow cytometric analysis (reference value: 96.65 %)", "type": "functional", "conditions": "read-out: Activity"}}, "data": [{"smiles": "COc1cc(O)c(-c2cc(-c3ccc(O)cc3)nc(N3CCNCC3)n2)cc1CC=C(C)C", "values": [{"measurement": "Activity", "setting": "HT-1080 [1]", "result": 2.92, "unit": "%"}, {"measurement": "viability at 6 µM", "setting": "HT-1080 [2]", "result": 80.8, "unit": "%"}]}]}
